Laboratory results published in patent publication US7507739B2, “6-[(substituted)phenyl]triazolopyrimidines as anticancer agents” (Wyeth, priority 2003, dated 2009).
Read-outs that look alike come from different tables or passages of the source.

Columns and labels:
[1] = tested on: pure tubulin; experiment: Tubulin polymerization test with pure tubulin without GTP; format: biochemical, bovine; conditions: no GTP
Protocol: (§1) Medium is RPMI-1640 with L-glutamine, supplemented with 10% heat-inactivated fetal calf serum, 100 units/ml penicillin, and 100 μg/ml streptomycin (Gibco, Grand Island, N.Y.). Microtubule-associated protein (MAP)-rich tubulin, containing about 70% tubulin and 30% MAPs (#ML113), and highly purified tubulin (>99% pure, #TL238), both from bovine brain, are obtained from Cytoskeleton, Inc., Denver, Colo. PEM buffer (80 mM piperazine-N,N′-bis[2-ethanesulfonic acid], pH 6.9, 1 mM ethylene glycol-bis(β-aminoethyl ether)-N,N,N′,N′-tetraacetic acid, 1 mM magnesium chloride) and guanosine 5′-triphosphate (GTP) are also obtained from Cytoskeleton. [3H]paclitaxel, specific activity 14.7 Ci/mmol, is purchased from Moravek Biochemicals (Brea, Calif.). [^3H]vinblastine, specific activity 9.60 Ci/mmol and MicroSpin G-50 columns are obtained from Amersham Biosciences (Piscataway, N.J.). […] Other reagents are obtained from Sigma (St. Louis, Mo.).
Two variations of this procedure are done, one using MAP-rich tubulin and one using pure tubulin.
The procedure with pure tubulin is similar except for the following changes. […] The supernatant after centrifugation is dispensed to a 96-well plate already containing compounds. Each compound is tested in duplicate at six serial 3-fold dilutions starting at 24.3 μM. The plate reader is thermostated at 35°.

[2] = tested on: tubulin heterodimer; experiment: Competitive binding test, [3H]colchicine; parameters: species or system bovine; conditions: [3H]colchicine 50 nM
Protocol: as §1
The binding of examples of this invention to highly purified tubulin is studied by competitive inhibition methods. […] To study possible competition at the taxane site, on the other hand, polymerized tubulin (microtubules) is used because paclitaxel binds preferentially to microtubules.
Highly purified tubulin is dissolved in PEM buffer without GTP and used at a final concentration of 1.0 to 1.3 mg/ml (10 to 13 μM). […] These solutions are incubated at 24° for 1 hr and then applied to MicroSpin G-50 columns which are centrifuged for 2 min at 3000 rpm in an Eppendorf 5415C microfuge. An aliquot of each column effluent (containing tubulin and bound radioligand) is mixed with scintillation fluid and counted in a liquid scintillation spectrometer. […] The ability of the competitor to inhibit the binding of the radioligand is expressed as a percentage of control binding in the absence of any competitor.

[3] = tested on: S1 cells; experiment: MTS cytotoxicity test with S1 cells; format: cell-based; conditions: Homo sapiens
Text: (§2) Human cancer cell lines, unless otherwise noted, are obtained from the American Type Culture Collection (Rockville, Md.). The following drug-sensitive parental cell lines, and their derived drug-resistant counterparts, are obtained from the originators as listed: (a) S1 (parental line from a subclone of human colon carcinoma line LS174T) and derived S1-M1-3.2 (herein called S1-M1) which expresses the MXR drug transporter protein, are provided by Dr. L. Greenberger, Wyeth Research (Rabindran, S. K., He, H., Singh, M., Brown, E., Collins, K. I., Annable, T., and Greenberger, L. M. Reversal of a novel multidrug resistance mechanism in human colon carcinoma cells by fumitremorgin C. Cancer Res., 58:5850-5858,1998); (b) parental HL-60 human promyelocytic leukemia line and derived HL-60/ADR, which expresses the MRP1 drug transporter protein, are provided by Dr. M. Center, University of Kansas (McGrath, T., and Center, M. S. Adriamycin resistance in HL60 cells in the absence of detectable P-glycoprotein. Biochem. Biophys. […] J. Biol. Chem., 261: 7762-7770,1986) via Dr. L. Greenberger, Wyeth Research.
(§3) The assay, which is sold in kit form by Promega (Madison, Wis.; CellTiter 96 AQueous Non-Radioactive Cell Proliferation Assay), is based on the conversion by viable cells, but not by dead cells, of the tetrazolium salt, MTS (3-(4,5-dimethylthiazol-2-yl)-5-(3-carboxymethoxyphenyl)-2-(4-sulphophenyl)-2H-tetrazolium, inner salt), into a water-soluble colored formazan which is detected by spectrophotometry. Compounds are tested at nine concentrations, in order to determine IC50 values. For the test procedure, cells are harvested by trypsinization (or, in the case of non-adherent cells, by simple resuspension), washed, counted and distributed to wells of 96-well flat-bottom microtiter plates at 1000 cells per well in 200 μL of medium. In addition, one row of wells on a separate plate received cells as above (“time 0” plate). All plates are incubated at 37° in humidified 5% CO2 in air for about 24 hr.
(§4) On day 2, compounds for test are diluted and added to wells. Compounds are dissolved in DMSO at 10 mg/mL. For each compound, nine serial 2-fold dilutions are prepared in DMSO. Ten μL of each dilution in DMSO is transferred to 100 μL of medium, mixed well, and then 5 μL of this dilution is transferred in quadruplicate to wells containing cells. […] Plates are returned to the incubator for three days. At the time of drug addition to the experimental plates, the MTS assay is run on the “time 0” plate. This produced the “time 0 MTS value” which is related to the number of viable cells per well at the time of drug addition.
(§5) After three days of culture with test compounds (day 5 overall), the MTS assay is done on all wells of the experimental plates. The absorbance values of the quadruplicate sample wells are averaged and divided by the average of the “time 0” values. […] The nine values for each compound are plotted against concentration, and the concentration that produced a relative color yield half way between the maximum and minimum is taken as the IC50 value.
S1-M1 cells overexpress the MXR transporter which mediates resistance to some chemotherapeutics (Gottesman, M. M., Fojo, T., and Bates, S. E. Miltidrug resistance in cancer: role of ATP-dependent transporters. Nature Rev. Cancer, 2: 48-58, 2002). The IC50 values of representative examples of this invention, as well as reference compounds, on S1-M1 are compared to values on the sensitive parental S1 line.

[4] = tested on: HL-60 cells; experiment: MTS cytotoxicity test with HL-60 cells; format: cell-based; conditions: Homo sapiens
Text: as §2, §3, §4, §5
HL-60/ADR cells overexpress the multidrug resistance protein MRP1 which mediates resistance to some chemotherapeutics (Gottesman, M. M., Fojo, T., and Bates, S. E. Multidrug resistance in cancer: role of ATP-dependent transporters. Nature Rev. Cancer, 2: 48-58, 2002). The IC50 values of representative examples of this invention, as well as reference compounds, on HL-60/ADR are compared to values on the sensitive parental HL-60 line.

[5] = tested on: KB-V1 cells; experiment: MTS cytotoxicity test with KB-V1 cells (very high P-glycoprotein); format: cell-based, human; conditions: for IC50: Homo sapiens, KB-V1 cells, MTS; for Ratio VI/KB: IC50 on KB VI cells/IC50 on KB cells; for recognition by P-glycoprotein: inferred from IC50 on KB-V1 compared to parental KB line
Text: as §2, §3, §4, §5
The KB lines express different amounts of the P-glycoprotein (MDR1) membrane pump which produces resistance to the action of many cytotoxic compounds, including paclitaxel and vincristine. The parental KB line expresses no P-glycoprotein, KB-8-5 expresses moderate levels of the protein, and KB-V1 expresses very high levels.

[6] = HL-60 cells, MTS, read-out: IC50 HL-60

SMILES | absorbance increase, polymerization of pure tubulin ([1]; 2.7 μM) | absorbance increase, polymerization of pure tubulin ([1]; 8.1 μM) | A340 at 0 min ([1]; 24.3 μM) | A340 at 5 min ([1]; 24.3 μM) | A340 at 10 min ([1]; 24.3 μM) | A340 at 15 min ([1]; 24.3 μM) | A340 at 20 min ([1]; 24.3 μM) | absorbance increase, polymerization of pure tubulin ([1]; 24.3 μM, first 5 min) | [3H]Colchicine binding, percent of control without competitor, Mean [2] | IC50 [3] | IC50 ([4]; HL-60, read-out: IC50 HL-60) | IC50 [5] | Ratio VI/KB [5] | recognition by P-glycoprotein [5] | IC50 [4, 6] | Ratio VI/KB ([5]; listed as paclitaxel)
CNCCCOc1cc(F)c(-c2c(Cl)nc3ncnn3c2N[C@@H](C)C(F)(F)F)c(F)c1.Cl [Example 2a, 5-Chloro-6-{2,6-difluoro-4-[3-(methylamino)propoxy]phenyl}-N-[(1S)-2,2,2-trifluoro-1-methylethyl][1,2,4]triazolo[1,5-a]pyrimidin-7-amine hydrogen chloride] | no effect | lower and less rapid increase | 0 | 0.25 | 0.24 | 0.23 | 0.22 | rapid increase in absorbance | 122% | 70 nM | 43 nM | 1120 nM | 48 | show recognition by P-glycoprotein |  | 
C[C@H](Nc1c(-c2c(F)cc(OCCCN(C)C)cc2F)c(Br)nc2ncnn12)C(F)(F)F [Example 25, 5-Bromo-6-{4-[3-(dimethylamino)propoxy]-2,6-difluorophenyl}-N-[(1S)-2,2,2-trifluoro-1-methylethyl][1,2,4]triazolo[1,5-a]pyrimidin-7-amine] | no effect | lower and less rapid increase | 0 | 0.22 | 0.23 | 0.22 | 0.22 | rapid increase in absorbance | 126% | 106 nM |  | 165 nM |  | not recognized at all by P-glycoprotein | 104 nM | 
C[C@H](Nc1c(-c2c(F)cc(OCCCO)cc2F)c(Cl)nc2ncnn12)C(F)(F)F [Example 20, 3-[4-(5-Chloro-7-{[(1S)-2,2,2-trifluoro-1-methylethyl]amino}[1,2,4]triazolo[1,5-a]pyrimidin-6-yl)-3,5-difluorophenoxy]propan-1-ol] |  |  | 0 | 0.03 | 0.03 | 0.03 | 0.03 |  | 98% | 85 nM |  | 73 nM |  | not recognized at all by P-glycoprotein | 155 nM | 
CC(=O)O[C@H]1C(=O)[C@@]2(C)[C@H]([C@H](OC(=O)c3ccccc3)[C@]3(O)C[C@H](OC(=O)[C@H](O)[C@@H](NC(=O)c4ccccc4)c4ccccc4)C(C)=C1C3(C)C)[C@]1(OC(C)=O)CO[C@@H]1C[C@@H]2O [Paclitaxel, reference compound] |  |  | 0 | 0 | 0 | 0.01 | 0.01 |  | 93% | 8.1 nM |  | > 1000 nM | >345 |  | 5.7 nM | > 345
CNCCCOc1cc(F)c(-c2c(Cl)nc3ncnn3c2NCC(F)(F)F)c(F)c1.Cl [Example 3a, 5-Chloro-6-{2,6-difluoro-4-[3-(methylamino)propoxy]phenyl}-N-(2,2,2-trifluoroethyl)[1,2,4]triazolo[1,5-a]pyrimidin-7-amine hydrogen chloride Salt] | no effect | lower and less rapid increase | 0 | 0.19 | 0.20 | 0.20 | 0.20 | rapid increase in absorbance | 134% | 61 nM |  | 2150 nM | 119 | show recognition by P-glycoprotein | 26 nM | 
